This is an account of results in US20110263588A1, “TRICYCLIC COMPOUNDS AS GLUTAMATE RECEPTOR MODULATORS” (GLAXO GROUP LIMITED, priority 2008, published 2011).

The test deals with T1, human mGlu5 recombinant receptor (Homo sapiens, UniProt P41594).
T1 construct: expressed in transfected cells; host or cells: inducible CHO cell line stably expressing Aequorin (Euroscreen FAST); doxycycline-responsive promoter
T1 sequence (P41594 21-1212): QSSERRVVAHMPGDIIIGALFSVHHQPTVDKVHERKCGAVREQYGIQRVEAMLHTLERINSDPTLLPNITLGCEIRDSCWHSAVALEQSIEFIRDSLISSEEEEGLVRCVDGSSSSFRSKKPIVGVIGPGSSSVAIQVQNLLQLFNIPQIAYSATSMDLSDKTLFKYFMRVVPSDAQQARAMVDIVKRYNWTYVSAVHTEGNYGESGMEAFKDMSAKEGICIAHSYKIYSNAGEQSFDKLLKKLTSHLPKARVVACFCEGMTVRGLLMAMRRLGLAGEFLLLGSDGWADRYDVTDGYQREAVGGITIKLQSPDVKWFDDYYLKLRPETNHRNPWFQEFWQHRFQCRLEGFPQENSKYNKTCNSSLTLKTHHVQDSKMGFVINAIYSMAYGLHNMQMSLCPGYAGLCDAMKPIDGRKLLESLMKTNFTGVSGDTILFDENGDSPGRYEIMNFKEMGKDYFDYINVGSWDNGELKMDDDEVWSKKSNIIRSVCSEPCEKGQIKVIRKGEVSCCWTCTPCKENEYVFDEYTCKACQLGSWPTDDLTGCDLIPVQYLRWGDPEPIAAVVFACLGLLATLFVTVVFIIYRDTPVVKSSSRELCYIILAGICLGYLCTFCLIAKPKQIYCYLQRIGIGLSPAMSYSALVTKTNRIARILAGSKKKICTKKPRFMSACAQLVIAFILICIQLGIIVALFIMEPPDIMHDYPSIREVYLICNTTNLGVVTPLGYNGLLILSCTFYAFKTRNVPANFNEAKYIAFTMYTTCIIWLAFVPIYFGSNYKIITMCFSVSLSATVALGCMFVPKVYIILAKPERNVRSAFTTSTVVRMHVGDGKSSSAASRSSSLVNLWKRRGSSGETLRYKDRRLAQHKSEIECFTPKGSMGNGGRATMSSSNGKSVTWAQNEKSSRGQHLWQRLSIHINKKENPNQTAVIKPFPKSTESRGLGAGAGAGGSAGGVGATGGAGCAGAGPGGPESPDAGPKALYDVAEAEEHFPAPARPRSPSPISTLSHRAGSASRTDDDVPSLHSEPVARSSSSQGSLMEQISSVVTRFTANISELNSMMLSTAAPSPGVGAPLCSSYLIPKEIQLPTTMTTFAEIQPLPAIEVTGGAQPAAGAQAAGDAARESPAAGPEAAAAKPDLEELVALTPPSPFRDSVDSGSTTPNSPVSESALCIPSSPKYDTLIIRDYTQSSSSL
The experiment in a line: mGluR5 calcium mobilization in inducible mGluR5 CHO cells (aequorin luminescence, antagonist mode). It is filed as cell-based. The settings on record: Table 3; antagonist activity against EC80 glutamate, inducible CHO cell line expressing human mGlu5 and Aequorin; read-out: IC50 (uM) Ca^++ flux. An excerpt: mGluR5 Calcium Mobilization in Inducible mGluR5 CHO Cells
To functionally measure mGluR5 calcium mobilization in response to agonists or antagonists, an inducible CHO cell line expressing the human mGlu5 recombinant receptor was used. This cell line also stably expressed Aequorin (Euroscreen FAST), a photoprotein that spontaneously couples with coelenterazine h when added exogenously in the cell media. The Aequorin-coelenterzine h complex undergoes a conformational change upon binding of calcium ions which results in the emission of blue light (wavelength 469 nm) that was measured using a Hamamatsu Functional Drug Screening System 6000.
mGluR5 expression was induced by a doxycycline responsive promoter by growing cells to mid-log phase for 18 hours in media without antibiotics and supplemented with doxycycline (600 ng/mL). Cells were detached from the plate by gentle flushing using PBS-EDTA (5 mM EDTA) and centrifuged for collection and resuspended in “assay buffer” (HBSS, 2.1 mM CaCl2, 2 ug/mL glutamate-pyruvate transaminase, 4 mM MEM sodium pyruvate, and 0.1% protease free BSA). Cells were incubated with coelenterazine h (Molecular Probes) at room temperature for 4 hours before testing.
To measure mGluR5 antagonist activity, cell suspensions containing test compound were mixed with EC80 glutamate and emission of light was recorded. Reference and test compounds were tested at several concentrations in duplicate to obtain dose response curves using the Prism GraphPad software (GraphPad Software Inc.). IC50 values were calculated from the dose response curves using the equation:
Y=Bottom+(Top−Bottom)/(1+10̂((LogEC50−X)*HillSlope)).
For `Cn1nc(C(=O)Nc2ccc(F)cc2)c2c1-c1ccccc1OC2` [N-(4-fluorophenyl)-1-methyl-1,4-dihydrochromeno[4,3-c]pyrazole-3-carboxamide], the IC50 is > 10 µM.

In the case of `COc1ccc(NC(=O)c2n[nH]c3c2COc2ccccc2-3)cc1` [N-(4-methoxyphenyl)-1,4-dihydrochromeno[4,3-c]pyrazole-3-carboxamide], the IC50 was > 10 µM.

As for `COc1ccc(Cl)cc1NC(=O)c1nn(C)c2c1COc1ccccc1-2` [N-(5-chloro-2-methoxyphenyl)-1-methyl-1,4-dihydrochromeno[4,3-c]pyrazole-3-carboxamide], the 50% inhibitory concentration (IC50) lay in the range of 1 to 10 µM. As for `Cn1nc(C(=O)Nc2ccc(Cl)cn2)c2c1-c1ccccc1OC2` [N-(5-chloropyridin-2-yl)-1-methyl-1,4-dihydrochromeno[4,3-c]pyrazole-3-carboxamide], the IC50 is < 1 µM. As for `O=C(Nc1cccnc1)c1n[nH]c2c1COc1ccccc1-2` [N-(pyridin-3-yl)-1,4-dihydrochromeno[4,3-c]pyrazole-3-carboxamide], the figure is > 10 µM.
